Test results from PubChem BioAssay (NCI).
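Abbreviation: GI50, concentration required for 50% inhibition of growth. Definition used: TGI = concentration required for complete inhibition of growth.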

Assays:
Assay in all cases: NCI-60 cell line screen, 384-well format
[1] = test system: M14 melanoma
[2] = test system: NCI-H522 lung
[3] = test system: SF-539 CNS
[4] = test system: SN12C renal
[5] = test system: NCI-H226 lung
[6] = test system: SNB-19 CNS
[7] = test system: T-47D breast
[8] = test system: NCI-H23 lung
[9] = test system: PC-3 prostate
[10] = test system: UO-31 renal
[11] = test system: HOP-92 NSCLC
[12] = test system: OVCAR-5 ovarian
[13] = test system: NCI-H460 NSCLC
[14] = test system: UACC-257 melanoma
[15] = test system: HCT-116 colon
[16] = test system: HL-60(TB) leukemia
[17] = test system: RPMI-8226 leukemia
[18] = test system: HS 578T breast
[19] = test system: DU-145 prostate
[20] = test system: SK-MEL-5 melanoma
[21] = test system: ACHN renal
[22] = test system: K-562 leukemia
[23] = test system: LOX IMVI melanoma
[24] = test system: MOLT-4 leukemia
[25] = test system: RXF 393 renal
[26] = test system: SNB-75 CNS
[27] = test system: U251 glioblastoma
[28] = test system: HCT-15 colon
[29] = test system: OVCAR-3 ovarian
[30] = test system: A498 renal
[31] = test system: KM12 colon
[32] = test system: NCI/ADR-RES ovarian
[33] = test system: MDA-MB-468 breast
[34] = test system: OVCAR-8 ovarian
[35] = test system: MALME-3M melanoma
[36] = test system: SF-268 CNS
[37] = test system: SK-OV-3 ovarian
[38] = test system: MCF7 breast
[39] = test system: HT29 colon
[40] = test system: EKVX NSCLC
[41] = test system: MDA-MB-435 melanoma
[42] = test system: IGROV1 ovarian
[43] = test system: A549 NSCLC
[44] = test system: TK-10 renal
[45] = test system: SW-620 colon
[46] = test system: 786-0 renal
[47] = test system: CAKI-1 renal
[48] = test system: HCC-2998 colon
[49] = test system: NCI-H322M lung
[50] = test system: SF-295 CNS
[51] = test system: OVCAR-4 ovarian
[52] = test system: MDA-MB-231 breast
[53] = test system: UACC-62 melanoma
[54] = test system: CCRF-CEM leukemia
[55] = test system: SK-MEL-28 melanoma
[56] = test system: HOP-62 NSCLC
[57] = test system: BT-549 breast
[58] = test system: COLO 205 colon

In the case of `O=C(Nc1ccc(Oc2ccc(F)cc2)cc1)[C@@H]1C[C@@H](Cc2ccc(F)cc2)CN1C(=O)Cn1ccnn1`, the GI50 [1] is reported as 7.23 µM, the TGI [1] is reported as 19.8 µM and the GI50 [2] is reported as 6.56 µM. It also gave a TGI [2] of 18.8 µM, a GI50 [3] of 10.9 µM and a TGI [3] of 23 µM. It also gave a GI50 [4] of 12.9 µM, a TGI [4] of 25.8 µM and a GI50 [5] of 9.85 µM. It also gave a TGI [5] of 21.7 µM, a GI50 [6] of 11.6 µM and a TGI [6] of 25.9 µM. It also gave a GI50 [7] of 3.64 µM, a TGI [7] of 10 µM and a GI50 [8] of 15.7 µM. It also gave a TGI [8] of 29.9 µM, a GI50 [9] of 4.69 µM and a TGI [9] of 15 µM. For the same compound, the GI50 [10] was 10.8 µM, the TGI [10] was 22.9 µM and the GI50 [11] was 3.72 µM. It also gave a TGI [11] of 12.1 µM, a GI50 [12] of 14.7 µM and a TGI [12] of 28.3 µM. The GI50 [13] was 5.39 µM, the TGI [13] was 16.8 µM and the GI50 [14] was 11.6 µM. The TGI [14] was 23.9 µM, the GI50 [15] was 5.34 µM and the TGI [15] was 16.7 µM. The GI50 [16] was 2.44 µM, the TGI [16] was 4.34 µM and the GI50 [17] was 3.81 µM. The TGI [17] was 9.88 µM, the GI50 [18] was 7.78 µM and the TGI [18] was 19.6 µM. It also gave a GI50 [19] of 10.8 µM, a TGI [19] of 26.7 µM and a GI50 [20] of 8.64 µM. It also gave a TGI [20] of 21 µM, a GI50 [21] of 4.88 µM and a TGI [21] of 17.4 µM. The GI50 [22] was 4.7 µM, the TGI [22] was 14.9 µM and the GI50 [23] was 5.29 µM. For the same compound, the TGI [23] was 17.1 µM, the GI50 [24] was 2.02 µM and the TGI [24] was 3.78 µM. The GI50 [25] was 3.77 µM, the TGI [25] was 11.4 µM and the GI50 [26] was 7.44 µM. For the same compound, the TGI [26] was 20.7 µM, the GI50 [27] was 4.94 µM and the TGI [27] was 16.3 µM. For the same compound, the GI50 [28] was 6.73 µM, the TGI [28] was 21.9 µM and the GI50 [29] was 7.5 µM. For the same compound, the TGI [29] was 19.5 µM, the GI50 [30] was 5.24 µM and the TGI [30] was 16.5 µM. The GI50 [31] was 8.19 µM, the TGI [31] was 20.8 µM and the GI50 [32] was 16.1 µM. For the same compound, the TGI [32] was 36.7 µM, the GI50 [33] was 6.95 µM and the TGI [33] was 18.8 µM. The GI50 [34] was 11.1 µM, the TGI [34] was 23.4 µM and the GI50 [35] was 6.92 µM. The TGI [35] was 19.2 µM, the GI50 [36] was 2.52 µM and the TGI [36] was 7.96 µM. For the same compound, the GI50 [37] was 12.7 µM, the TGI [37] was 28.1 µM and the GI50 [38] was 4.1 µM. For the same compound, the TGI [38] was 14.5 µM, the GI50 [39] was 3.46 µM and the TGI [39] was 11.7 µM. The GI50 [40] was 11 µM, the TGI [40] was 24.9 µM and the GI50 [41] was 13.3 µM. For the same compound, the TGI [41] was 26.3 µM, the GI50 [42] was 7.92 µM and the TGI [42] was 20.8 µM. The GI50 [43] was 4.06 µM, the TGI [43] was 19.2 µM and the GI50 [44] was 11.1 µM. It also gave a TGI [44] of 24.2 µM, a GI50 [45] of 16.1 µM and a TGI [45] of 29.8 µM. The GI50 [46] was 4.65 µM, the TGI [46] was 16.3 µM and the GI50 [47] was 12.1 µM. It also gave a TGI [47] of 25.1 µM, a GI50 [48] of 4.57 µM and a TGI [48] of 14.6 µM. It also gave a GI50 [49] of 14.8 µM, a TGI [49] of 30.1 µM and a GI50 [50] of 7.16 µM. For the same compound, the TGI [50] was 19.5 µM, the GI50 [51] was 11.9 µM and the TGI [51] was 26.4 µM. The GI50 [52] was 13.5 µM, the TGI [52] was 27.1 µM and the GI50 [53] was 13.2 µM. It also gave a TGI [53] of 26.1 µM, a GI50 [54] of 2.64 µM and a TGI [54] of 5.92 µM. It also gave a GI50 [55] of 15.8 µM, a TGI [55] of 29.4 µM and a GI50 [56] of 6.4 µM. It also gave a TGI [56] of 18.2 µM, a GI50 [57] of 7.1 µM and a TGI [57] of 18.7 µM. For the same compound, the GI50 [58] was 8.04 µM and the TGI [58] was 21.4 µM.
